According to the METLIN SMRT retention time set (Domingo-Almenara et al. 2019):

Assay: gradient 5% acetonitrile 3 min, to 50% in 2 min, to 85% in 15 min, held 3 min, 100 µL/min
Conditions: column: Zorbax Extend-C18 2.1 x 50 mm; eluents: water / acetonitrile, 0.1% formic acid
Method in brief: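 Values are retention times taken from adduct peaks that software picked and an analyst inspected. The pure standards were run as mixtures of ~100 molecules on HPLC linked to a quadrupole time-of-flight mass spectrometer, in positive and negative ionization mode. A Zorbax Extend-C18 column (2.1 × 50 mm, 1.8 μm) was used at 100 μL/min with water and acetonitrile, each including 0.1% formic acid.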

CC(C)c1csc(-c2csc(S(=O)(=O)NCc3ccc(N(C)C)cc3)c2)n1
RP-LC retention time: 930 s

COc1cccc(Cn2c(=O)c3sccc3n(Cc3nc(-c4ccccc4Cl)no3)c2=O)c1
RP-LC retention time: 1080 s

Cc1ccc(CN2CC(c3ncc(C)n3Cc3ccccc3)C2)s1
RP-LC retention time: 587 s

CCOc1ccc(N2C=C(C(=O)N3CCCC3)S(=O)(=O)c3ccccc32)cc1
RP-LC retention time: 828 s

COc1ccc(NC(=O)Cn2c(N3CCCC3)nc(C)cc2=O)cc1
RP-LC retention time: 603 s

COc1ccc(NC(=O)N2CCCC2c2nc(-c3ccccc3OC)no2)cc1OC (stereo not given)
RP-LC retention time: 941 s

COc1ccc(Cl)cc1NC(=O)NCC(=O)N1CCc2ccccc21
RP-LC retention time: 930 s

Cc1ccc(CNC(=O)CCc2ccc3cc[nH]c3c2)cc1
RP-LC retention time: 879 s

CCOC(=O)c1c(C)oc2nc(C)nc(N(C)Cc3ccccc3)c12
RP-LC retention time: 1150 s

COC(=O)c1ccc(NC(=O)CSc2ccc(NC(=O)c3ccccc3F)nn2)cc1
RP-LC retention time: 805 s

COc1ccc(NC(=O)NC2CCN(C(=O)N3C[C@H]4C[C@H](C3)[C@H]3CCCC(=O)N3C4)CC2)cc1
RP-LC retention time: 652 s

O=C(N[C@H]1C[C@@H]2C[C@H]1CN2S(=O)(=O)c1cccnc1)c1ccccc1
RP-LC retention time: 697 s

Fc1ccc(-c2noc(-c3ccc(NCCN4CCOCC4)nc3)n2)cc1
RP-LC retention time: 687 s

Cc1nc(OCC(=O)N2CCc3ccccc32)c2c(-c3ccccc3)noc2n1
RP-LC retention time: 1100 s

CCOc1ccc(CC(=O)N2CCc3cc(-c4csc(C)n4)ccc32)cc1
RP-LC retention time: 1060 s

Cc1ccc(Nc2nc(C(=O)NC3CCCCC3)nc3ccccc23)cc1
RP-LC retention time: 906 s

O=C(NCc1cccnc1)C1CCN(c2nnc3ccc(C(F)(F)F)cn23)CC1
RP-LC retention time: 536 s

CC1Cc2cc(-c3cc(CNC(=O)c4ccccc4C(F)(F)F)no3)ccc2O1 (stereo not given)
RP-LC retention time: 875 s

CCOc1ccc(C(=O)n2nc(C)c(S(=O)(=O)N3CCCCC3)c2C)cc1
RP-LC retention time: 997 s

COC(=O)c1cccc(NC(=O)N2C[C@H]3C[C@@H](C2)c2cccc(=O)n2C3)c1
RP-LC retention time: 636 s

CCc1cc(C(=O)Nc2cccc(OC)c2)nc2ccnn12
RP-LC retention time: 985 s

CCc1nnc([C@@H]2CC(F)(F)CN2C(=O)c2ocnc2C)o1
RP-LC retention time: 644 s

O=C(Nc1ccc(N2CCN(c3ccccc3)C2=O)nc1)c1ccc(F)c(F)c1
RP-LC retention time: 989 s

CCn1cc(CC(=O)NCc2cccc(F)c2)c2cccnc21
RP-LC retention time: 716 s

Cc1ccc(-c2nnc(-c3ccc(Cl)c(S(=O)(=O)N4CCOCC4)c3)o2)cc1
RP-LC retention time: 1030 s

COc1ccc2c(C)cc(SCC(=O)Nc3c(C)cccc3C)nc2c1
RP-LC retention time: 995 s

Cc1ccc(-c2noc(CN3N=NC4C(=O)N(c5ccc(C(C)C)cc5)C(=O)C43)n2)cc1 (stereo not given)
RP-LC retention time: 1150 s

Cc1cccc(Cn2c(=O)n(CCNC(=O)CC(C)C)c3ncccc32)c1
RP-LC retention time: 800 s

CCc1ccc(NC(=O)c2cc(C(C)C)n3nccc3n2)cc1
RP-LC retention time: 1260 s

COc1ccccc1N1CCN(c2cc(SCC(=O)Nc3ccc(F)cc3C)ncn2)CC1
RP-LC retention time: 959 s

O=C(Nc1nc(-c2ccc([N+](=O)[O-])cc2)cs1)C1=COCCO1
RP-LC retention time: 844 s

COc1ccc(C)cc1NC(=O)C1CC(=O)N(c2ccc3c(c2)CCN3C(=O)C2CC2)C1 (stereo not given)
RP-LC retention time: 836 s

O=C(NCCc1ccc(Cl)cc1)c1nnc(-c2ccc(S(=O)(=O)N3CCOCC3)cc2)o1
RP-LC retention time: 925 s

CC1CCc2c(sc3nc(CCC(=O)N4CCC(C(N)=O)CC4)[nH]c(=O)c23)C1 (stereo not given)
RP-LC retention time: 697 s

O=C(NC1CCN(c2cc(-c3ccc(F)cc3)[nH]n2)C1)c1ccc2[nH]ccc2c1 (stereo not given)
RP-LC retention time: 689 s

CCc1nc(-c2cccc(-c3noc(COc4cccc(C)c4)n3)c2)cs1
RP-LC retention time: 1390 s

O=C(Cn1nc(C(=O)N2CCCCC2)c2ccccc21)N1CCN(c2cccc(Cl)c2)CC1
RP-LC retention time: 1010 s

COc1cccc(CNC(=O)C2(C)CCCN(C(=O)Nc3ccc(OC)c(OC)c3)C2)c1 (stereo not given)
RP-LC retention time: 746 s

CC(C)c1ccc(N2C=C(C(=O)N3CCCCC3)S(=O)(=O)c3ccccc32)cc1
RP-LC retention time: 1040 s

COc1ccc(-c2nnc(NC(=O)CSc3nc4ccccc4s3)s2)cc1
RP-LC retention time: 918 s

Cc1nn(CC(=O)NCCC2=CCCCC2)c(=O)c2c(-n3cccc3)n(-c3cccc(F)c3)nc12
RP-LC retention time: 1090 s

COc1ccccc1NC(=O)N1CCC(CNC(=O)c2ccc(Br)o2)CC1
RP-LC retention time: 744 s

CC(=O)O[C@H]1C[C@@H]2OC3C=C(C)CCC3(C)[C@@]1(C)[C@@]21CO1 (stereo not given in full)
RP-LC retention time: 833 s

CCCCn1cnc2c(-c3ccccc3)cn(CC(=O)N3CCCC3)c2c1=O
RP-LC retention time: 836 s

O=C(NC1CCCCC1)N1CCCC(Cn2c(C3CC3)nc3cccnc32)C1 (stereo not given)
RP-LC retention time: 668 s

Cc1[nH]nc(-c2c(C)sc(C)c2S(=O)(=O)Nc2ccc(F)c(Cl)c2)c1C
RP-LC retention time: 1140 s

O=C(c1ccccn1)N1CCCC(c2n[nH]c(C3CC3)n2)C1 (stereo not given)
RP-LC retention time: 542 s

Cc1c(NC(=O)c2cccc3c2-c2ccccc2C3=O)c(=O)n(-c2ccccc2)n1C
RP-LC retention time: 658 s

CCCN(CC1CCOC1)C(=O)Nc1cc(F)cc(F)c1 (stereo not given)
RP-LC retention time: 871 s

Cc1nnc2ccc(-c3noc(Cc4cccc(Cl)c4)n3)cn12
RP-LC retention time: 871 s

Cc1ccccc1-c1nc2cnccn2c1NCCC(=O)NCc1ccc(F)c(Cl)c1
RP-LC retention time: 714 s

COc1ccc(CC(=O)N2C[C@@H]3C[C@H]2C[C@@H]3NS(C)(=O)=O)cc1
RP-LC retention time: 647 s

Cc1cc(C)nc(Nc2nc(C(=O)O)cs2)n1
RP-LC retention time: 626 s

O=c1ccn(-c2ccc(F)cc2)nc1-c1nc(-c2ccccc2F)no1
RP-LC retention time: 838 s

Cc1ccc(-c2nnc(-c3nn(C)c4c3CN(S(=O)(=O)c3cccc(C)c3)CC4)o2)cc1
RP-LC retention time: 998 s

CC(=O)c1cccc(NC(=O)N2CCc3nc[nH]c3C2)c1
RP-LC retention time: 556 s

Cn1cc(C(=O)N2CCOCC2)c2cccnc21
RP-LC retention time: 601 s

COc1ccc(-c2noc(-c3nc(-c4ccccc4F)no3)n2)cc1OC
RP-LC retention time: 1110 s

CC(C)CCNC(=O)c1ccc2ccnc(N3CCN(c4ccc(Cl)cc4)CC3)c2c1
RP-LC retention time: 992 s

CCc1cc(C(=O)Nc2ccc(OC)cc2C)nc2ccnn12
RP-LC retention time: 970 s

CCn1ccc2cc(S(=O)(=O)N3CCCC(C(=O)NCc4ccc(OC(C)C)cc4)C3)ccc21 (stereo not given)
RP-LC retention time: 1060 s

Cc1cccc(-n2c(N3CCCC(C(=O)NCc4ccc(C)c(C)c4)C3)nc3ccsc3c2=O)c1 (stereo not given)
RP-LC retention time: 1020 s

COCC(C)(O)CNC(=O)c1cccnc1SC (stereo not given)
RP-LC retention time: 577 s

CC(C)(C)NC(=O)N1CCC(OC2CCN(Cc3ccccc3)CC2)CC1
RP-LC retention time: 625 s

CC(C(=O)N1CCN(c2ccccn2)CC1)C1CCN(C(=O)c2cc3cc(Cl)ccc3[nH]2)CC1 (stereo not given)
RP-LC retention time: 675 s
